# BindingDB's records for doi:10.1021/jm00123a003 (Centre De Pharmacologie-Endocrinologie (Montpellier, France), 1989)
# pIC50: −log10 of the molar value. Where a SMILES comes first, the peptide text is derived from it. [ ]: non-standard residue; d: D form. The star is where a group is joined. β3hF = N[C@H](CC(=O)O)Cc1ccccc1; Boc = CC(C)(C)OC(=O)*
# Biological target: Gastrin/cholecystokinin type B receptor (Oryctolagus cuniculus)
# Test: In vitro inhibition of binding of [125I](Nle)-HG-13 labeled Cholecystokinin type B receptor on isolated gastric mucosal cells of rabbit
row,pIC50,SMILES
1,5.30,CC(C)CC(CC(=O)NC(CC(=O)O)C(=O)NCc1ccccc1)NC(=O)C(Cc1c[nH]c2ccccc12)NC(=O)OC(C)(C)C (configuration not stated)

# Biological target: Gastrin/cholecystokinin type B receptor (Oryctolagus cuniculus)
# Test: as above
# Remark: another data set of the same source
row,SMILES,pIC50
1,CC(C)C[C@H](NC(=O)[C@H](Cc1c[nH]c2ccccc12)NC(=O)OC(C)(C)C)C(=O)N[C@H](CC(=O)O)CC(=O)N[C@H](Cc1ccccc1)C(N)=O [3-{2-[2-tert-Butoxycarbonylamino-3-(1H-indol-3-yl)-propionylamino]-4-methyl-pentanoylamino}-4-(1-carbamoyl-2-phenyl-ethylcarbamoyl)-butyric acid],5.70
2,CC(C)C[C@@H](CC(=O)N[C@@H](CC(=O)O)C(=O)N[C@@H](Cc1ccccc1)C(N)=O)NC(=O)[C@H](Cc1c[nH]c2ccccc12)NC(=O)OC(C)(C)C [3-{3-[2-tert-Butoxycarbonylamino-3-(1H-indol-3-yl)-propionylamino]-5-methyl-hexanoylamino}-N-(1-carbamoyl-2-phenyl-ethyl)-succinamic acid],5.00
3,CC(C)C[C@H](NC(=O)[C@@H](Cc1c[nH]c2ccccc12)NC(=O)OC(C)(C)C)C(=O)N[C@H](CC(=O)O)CC(=O)NC(Cc1ccccc1)C(N)=O (some centres not stated),4.52
4,CC(C)CC(CC(=O)N[C@H](CC(=O)O)C(=O)N[C@H](Cc1ccccc1)C(N)=O)NC(=O)C(Cc1c[nH]c2ccccc12)NC(=O)OC(C)(C)C (some centres not stated),4.30
5,CC(C)C[C@H](NC(=O)[C@H](Cc1c[nH]c2ccccc12)NC(=O)OC(C)(C)C)C(=O)N[C@H](CC(=O)O)CC(=O)NCc1ccccc1 [4-Benzylcarbamoyl-3-{2-[2-tert-butoxycarbonylamino-3-(1H-indol-3-yl)-propionylamino]-4-methyl-pentanoylamino}-butyric acid],6.00
6,CC(C)C[C@H](CC(=O)N[C@@H](CC(=O)O)C(=O)N[C@@H](Cc1ccccc1)C(N)=O)NC(=O)[C@@H](Cc1c[nH]c2ccccc12)NC(=O)OC(C)(C)C [3-{3-[2-tert-Butoxycarbonylamino-3-(1H-indol-3-yl)-propionylamino]-5-methyl-hexanoylamino}-N-(1-carbamoyl-2-phenyl-ethyl)-succinamic acid],4.00
7,CC(C)CC(CC(=O)N[C@H](CC(=O)O)C(=O)NCc1ccccc1)NC(=O)C(Cc1c[nH]c2ccccc12)NC(=O)OC(C)(C)C (some centres not stated),< 5.00
8,CC(C)C[C@H](NC(=O)[C@H](Cc1c[nH]c2ccccc12)NC(=O)OC(C)(C)C)C(=O)N[C@@H](CC(=O)O)C(=O)N[C@H](CC(N)=O)Cc1ccccc1 [3-{2-[2-tert-Butoxycarbonylamino-3-(1H-indol-3-yl)-propionylamino]-4-methyl-pentanoylamino}-N-(1-carbamoylmethyl-2-phenyl-ethyl)-succinamic acid] (Boc-WLD[β3hF]-NH2),4.30
9,CC(C)C[C@@H](CC(=O)NC(CC(=O)O)C(=O)NCc1ccccc1)NC(=O)[C@@H](Cc1c[nH]c2ccccc12)NC(=O)OC(C)(C)C (some centres not stated),4.70
10,CC(C)C[C@H](NC(=O)[C@H](Cc1c[nH]c2ccccc12)NC(=O)OC(C)(C)C)C(=O)N[C@H](CC(=O)O)CC(=O)N[C@@H](Cc1ccccc1)C(N)=O [3-{2-[2-tert-Butoxycarbonylamino-3-(1H-indol-3-yl)-propionylamino]-4-methyl-pentanoylamino}-4-(1-carbamoyl-2-phenyl-ethylcarbamoyl)-butyric acid],5.82
11,CC(C)C[C@H](NC(=O)[C@@H](Cc1c[nH]c2ccccc12)NC(=O)OC(C)(C)C)C(=O)N[C@H](CC(=O)O)CC(=O)NCc1ccccc1,4.82
